Drawing on BindingDB's records for doi:10.7270/Q2JD4V5T (Burnham Center for Chemical Genomics, 2008), this text covers IC50 for six molecules.

In one assay the target is Ephrin type-A receptor 4 (Mus musculus, UniProt Q03137). The experiment in a line: placental alkaline phosphatase inhibitors, dose response, counter-screen, biochemical, colorimetric (AID 779). For orientation: A counterscreen serves to expose hits that act by an unwanted route or on another target.
Assay in assay [1]: as above

Molecules are shown by their SMILES. pIC50: −log10 of the molar value.

Ephrin type-A receptor 4, sequence (Q03137 whole entry): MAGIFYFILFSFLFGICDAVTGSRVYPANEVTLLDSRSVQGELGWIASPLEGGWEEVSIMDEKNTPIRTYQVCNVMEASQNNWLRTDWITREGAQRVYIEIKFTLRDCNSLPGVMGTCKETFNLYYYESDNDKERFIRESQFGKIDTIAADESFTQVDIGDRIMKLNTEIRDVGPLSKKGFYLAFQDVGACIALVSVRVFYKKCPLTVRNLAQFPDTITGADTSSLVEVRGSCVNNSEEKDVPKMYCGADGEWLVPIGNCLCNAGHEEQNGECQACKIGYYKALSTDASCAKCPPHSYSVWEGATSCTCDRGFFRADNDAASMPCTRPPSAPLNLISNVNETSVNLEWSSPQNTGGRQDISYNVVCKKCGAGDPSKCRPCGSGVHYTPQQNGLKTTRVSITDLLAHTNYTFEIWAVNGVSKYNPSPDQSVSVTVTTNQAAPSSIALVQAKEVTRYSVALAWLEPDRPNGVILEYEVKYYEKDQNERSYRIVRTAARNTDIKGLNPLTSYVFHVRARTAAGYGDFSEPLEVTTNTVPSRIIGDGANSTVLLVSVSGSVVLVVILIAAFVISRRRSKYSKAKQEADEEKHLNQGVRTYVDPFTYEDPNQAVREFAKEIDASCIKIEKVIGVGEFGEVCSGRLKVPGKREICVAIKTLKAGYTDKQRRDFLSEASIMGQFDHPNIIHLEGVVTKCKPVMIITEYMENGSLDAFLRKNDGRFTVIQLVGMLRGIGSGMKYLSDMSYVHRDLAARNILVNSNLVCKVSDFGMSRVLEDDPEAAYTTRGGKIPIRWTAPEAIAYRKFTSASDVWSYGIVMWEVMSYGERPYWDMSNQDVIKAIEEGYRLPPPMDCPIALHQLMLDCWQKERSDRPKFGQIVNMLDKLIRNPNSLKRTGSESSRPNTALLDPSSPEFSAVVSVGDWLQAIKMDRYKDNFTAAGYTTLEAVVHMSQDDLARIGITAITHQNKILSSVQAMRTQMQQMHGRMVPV

For orientation: pIC50 means the IC50 on a negative log10 scale, so that one unit is a factor of ten. Higher therefore signals a small IC50. `CCCCN(CCCC)c1nc2ccccc2nc1C(C#N)C(=O)OCC` (stereo unspecified) [(2Z)-2-cyano-2-[3-(dibutylamino)-1H-quinoxalin-2-ylidene]acetic acid ethyl ester] had a negative-log IC50 (pIC50) against Ephrin type-A receptor 4 of less than 4.30.

In turn, `CC(CC(=O)c1ccccc1)N=Nc1nc2ccccc2s1` (stereo unspecified) [(E)-3-(1,3-benzothiazol-2-ylhydrazo)-1-phenyl-2-buten-1-one] had a pIC50 on Ephrin type-A receptor 4 of less than 4.30.

With `CCCCOP(=O)(OCCCC)C(C#N)C(C)=O` (stereo unspecified) [(Z)-2-dibutoxyphosphoryl-3-hydroxy-2-butenenitrile], the pIC50 against Ephrin type-A receptor 4 is less than 4.30.

Turning to `Cc1ccc(Cl)cc1-n1c(C)nc(Cc2ccc([N+](=O)[O-])cc2)c1O` [MLS000519000], at Ephrin type-A receptor 4, the pIC50 is less than 4.30.

In turn, `O=C1/C(=C\c2nc3ccccc3[nH]2)SC(=S)N1c1ccc(F)cc1` [SMR000163732] showed a pIC50 in assay [1] of less than 4.30.

The molecule `CCN1C(=O)C(C=NN=Cc2ccccc2)c2ccc(C3=NNC(=O)CC3)cc21` (stereo unspecified) [benzaldehyde {[1-ethyl-2-oxo-6-(6-oxo-1,4,5,6-tetrahydro-3-pyridazinyl)-1,2-dihydro-3H-indol-3-ylidene]methyl}hydrazone] had a negative logarithm of the IC50 (pIC50) at Ephrin type-A receptor 4 of less than 4.30.
